Measured values reported in patent US20240400692A1, “CELIAC DISEASE EPITOPES” (NEXTERA AS, priority 2021, published 2024).

Legend:
chymotrypsin = molecular target: T1, chymotrypsin (Bos taurus, UniProt P00766); assay: In vitro chymotrypsin digest and mass spectrometry of recombinant gliadin; details: chymotrypsin 200:1 (w:w), 37° C., 24h; MS; FIG. 9E
T1 construct: purchased Sigma; host or cells: substrate gliadin: E. coli BL21 (DE3)pLysS, made by Genscript
From the text: Assessment of in vitro chymotrypsin proteolysis of the A0A0E3SZN6_TRIUA protein. The T. aestivum Q9M4L6_WHEAT (A), T. urartu A0A0E3SZN6_TRIUA (B) and T. aestivum Q9FUW7_WHEAT (C) proteins where produced and affinity purified from E. coli, followed by in vitro chymotrypsin digest and mass spectrometry analysis of the resulting peptide segments (D, E and F). The anticipated 9-mer core regions of the relevant epitopes are indicated by enumeration (D, E and F). Panel A: SDS-PAGE and Western blot analysis of Q9M4L6_WHEAT. Lane M1: Protein Marker, GenScript, Cat. No. M00516, Lane M2: Protein Marker, GenScript, Cat. No. M00521, Lane 1: BSA ([…]), Lane 2: Q9M4L6_WHEAT (Reducing condition, […]), Lane 3: Q9M4L6_WHEAT (Non-reducing condition, 2.00 μg), Lane 4: Q9M4L6_WHEAT (Reducing condition), Lane 5: Q9M4L6_WHEAT (Non-reducing condition), Primary antibody: Mouse-anti-His mAb (GenScript, Cat. No. A00186). Panel B: SDS-PAGE and Western blot analysis of A0A0E3SZN6_TRIUA. […]
Recombinant gliadins were in vitro chymotrypsin digested essentially as described (Molberg O, et al., Methods Mol Med. 2000; 41:105-24). […] MS spectra were analyzed by using the PEAKS studio software (Bioinformatics Solutions Inc.) searched against a custom databased made by the respective gliadin Uniprot accession codes.

[1] = test system: T cells in HLA-DQ2.5 typed PBMCs; assay: Intracellular IFN-γ flow assay of peptide-stimulated PBMCs; format: cell-based, human; details: HC donor 557; 20 μM peptide; 48h; FIG. 14B
[2] = test system: T cells in HLA-DQ2.5 typed PBMCs; assay: as above; format: cell-based, human; details: for expansion of IFN-γ positive cells in the CD3+/CD4− cell population / expansion of IFN-γ positive CD4 T cells, CeD donor: 20 μM peptide; for expansion of IFN-γ positive cells in the CD3+/CD4− cell population / expansion of IFN-γ positive CD4 T cells, CeD donor / presence of response in tested CeD PBMC material / responses in healthy controls: 48h; for expansion of IFN-γ positive cells in the CD3+/CD4− cell population: FIG. 14C; for peptide reactivity, CeD donor 595: no statistical difference; for expansion of IFN-γ positive CD4 T cells, CeD donor: CeD donor 595, average, FIG. 14B; for presence of response in tested CeD PBMC material: CeD donors 585, 595 and 600; for presence of response in tested CeD PBMC material / responses in healthy controls: 20 μM; for responses in healthy controls: two HCs (557 and 558), FIG. 15B
From the text: Intracellular IFNγ flow assessment of CD4 T cell peptide stimulatory capacity using PBMCs. Cryopreserved HLA-DQ2.5 typed PBMCs from confirmed healthy controls (HC) and CeD patients were purchased (HemaCare-Cellero) and used in autologous in vitro T cell peptide stimulation assays followed by intracellular IFNγ staining in flow. (A) PBMCs from CeD donor 595 were used to set intracellular IFNγ baseline detection gates on CD3/CD4 T cells using anti-IFNγ-PE. (B and C) Bar graph representing intracellular IFNγ detection in CD4+/IFNγ+(B) and CD4−/IFNγ+(C) gates as illustrated in A. PBMCs from CeD donor 595 and HC 575 were stimulated with 20 μM DQ2.5-glia 33-mer (N-[…]-C(SEQ ID NO:59)) and A0A0E3SZN6_p6E_long (N-[…]-C(SEQ ID NO:30)), for 48h followed by intracellular T cell IFNγ detection.
Intracellular IFN-γ flow assessment of CD4 T cell peptide stimulatory capacity using PBMCs. Cryopreserved HLA-DQ2.5 typed PBMCs from confirmed healthy controls (HC) and CeD patients were purchased (HemaCare-Cellero) and used in autologous in vitro T cell peptide stimulation assays followed by intracellular IFN-γ staining in flow. Intracellular IFN-γ baseline detection gates on CD3/CD4 T cells using anti-IFN-γ-PE were set as in FIG. 14.
PBMCs from CeD donors (585, 595 and 600) and HCs (557 and 558) were stimulated with 20 μM DQ2.5-glia 33-mer (N-[…]-C(SEQ ID NO:59)) and A0A0E3SZN6_p6E_long (N-[…]-C(SEQ ID NO:30)), for 48h followed by intracellular T cell IFN-γ detection (A and B). Values are presented as mean values and ±SEM.
Peptide-stimulated PBMCs were assessed for intracellular IFN-γ following reagents and the standard protocol from BioLegend (https://www.biolegend.com/). Briefly, cryopreserved human HLA-DQ2.5^+ PBMCs (HemaCare-Cellero) where gently thawed and washed in ice-cold PBS before resuspended into RPMI1640 supplemented with 10% FCS (v/v) before volumes of 1 ml (about 2×10^7 cells) were aliquoted into a 24-well microtiter plate (NUNC). One set of wells received either 20 μM of peptide (either A0A0E3SZN6_p6E_long ([…] (SEQ ID NO:30)) or 33-mer ([…] ([…]))). […] The cells were grown at standard conditions at 37° C. for 36h before Brefaldin A (BioLegend) and Monensin (BioLegend) was added, and incubation continued for another 12 h. The cells were then assessed for intracellular IFN-γ by flow. Data was acquired on a BD Accuri C6 cytometer (BD Biosciences) and analyzed using FlowJo software V10 (Tree Star).

107 antibody = assay: FACS of antibody binding to peptides pulsed onto DQ2.5+ Raji cells, 107 antibody; format: cell-based; details: 50 μM peptide pulsed onto human DQ2.5+ Raji cells
Procedure: (§1) Assessment of antibody binding to the A0A0E3SZN6_TRIUA epitope candidate. […] The indicated peptides (50 μM) were pulsed onto human DQ2.5*Raji cells and antibody binding was tested in FACS as described (B).
(§2) Assessment of antibody binding to the physiological relevant forms of the A0A0E3SZN6_TRIUA epitope candidate. The T. urartuA0A0E3SZN6_TRIUA (A) and T. aestivum Q9M4L6_WHEAT (B) sequences were in silico digested with tryspin and chymotrypsin, and the relevant digested fragments shown underlined (A and B). […] The known P positions are indicated (C). The indicated peptides were pulsed (50 μM) onto human DQ2.5*Raji cells and antibody binding was tested in FACS as described (D).
(§3) To identify putative gliadin-derived sequences different from, but with similarity to, the 30 DOQ.2.5-glia-α1a epitope (PFPQP{right arrow over (E)}LPY (SEQ ID NO:4)), the UniProtKB protein database was searched using the ScanProsite tool (https://prosite.expasyorg/scanprosite/). […] More specifically, we fixed the proline (P) in p1, the glutamine (Q) in p6, the tyrosine (Y) in p9, and P was disallowed in the position p10 after the p9 Y (underlined). To focus the output of the searches, we restricted the output to the Triticum taxonomic group. […] In some cases, Q residues were exchanged with glutamate (E) in the peptide synthesis in order to mimic positional deamidation.

4.7C antibody = assay: FACS of antibody binding to peptides pulsed onto DQ2.5+ Raji cells, 4.7C antibody; format: cell-based; details: 50 μM peptide pulsed onto human DQ2.5+ Raji cells
Procedure: as §1, §2, §3

[3] = A0A0E3SZN6 peptide versus 33-mer, FIG. 15A

Sequence of 4.7C antibody (as listed by the source, other chains not shown): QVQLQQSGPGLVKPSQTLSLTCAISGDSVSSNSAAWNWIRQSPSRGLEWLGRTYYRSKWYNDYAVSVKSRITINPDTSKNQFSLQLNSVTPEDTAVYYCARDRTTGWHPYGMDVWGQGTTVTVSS
Sequence of 4.7C antibody (as listed by the source, other chains not shown): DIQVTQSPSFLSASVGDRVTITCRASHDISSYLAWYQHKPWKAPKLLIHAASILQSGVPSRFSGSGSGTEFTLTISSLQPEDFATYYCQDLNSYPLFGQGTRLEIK
Sequence of 107 antibody (as listed by the source, other chains not shown): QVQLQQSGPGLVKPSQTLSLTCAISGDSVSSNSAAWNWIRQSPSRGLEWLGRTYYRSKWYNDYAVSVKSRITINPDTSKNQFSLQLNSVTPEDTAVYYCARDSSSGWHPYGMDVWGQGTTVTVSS

A0A0E3SZN6_TRIUA: omega-gliadin protein of Triticum urartu (SEQ ID NO:1), produced recombinantly in E. coli (QPQQPYP)
processing of the 9-mer core by chymotrypsin proteolysis (chymotrypsin): no destructive processing was observed of the postulated novel 9-mer core peptide

LQLQPFPQPELPYPQPELPYPQPELPYPQPQPF (SEQ ID NO:55) [33-mer, reference compound]
expansion of IFN-γ positive CD4 T cells, healthy control [1]: no such expansion | expansion of IFN-γ positive cells in the CD3+/CD4− cell population [2]: not seen | peptide reactivity, CeD donor 585 [2, 3]: appeared to favor | peptide reactivity, CeD donor 595 [2, 3]: about equal on both | expansion of IFN-γ positive CD4 T cells, CeD donor [2]: 4.2% | presence of response in tested CeD PBMC material ([2]; FIG. 15A): 2/3 | responses in healthy controls [2]: no responses

PQPELPYPQPE (SEQ ID NO:57) [DQ2.5-glia-α2, reference compound]
binding of 107 antibody to peptide-pulsed Raji cells (FACS) (107 antibody): No binding | binding of 4.7C antibody to peptide-pulsed Raji cells (FACS) (4.7C antibody): No binding

PQQPYPEQEQPYGT (SEQ ID NO:63) [EE]
binding of 107 antibody to peptide-pulsed Raji cells (FACS) (107 antibody): bind well | binding of 4.7C antibody to peptide-pulsed Raji cells (FACS) (4.7C antibody): bind well

PQQPYPEQQQPYGT (SEQ ID NO:62) [form of the peptide with E at position 4 of the 9-mer]
binding of 107 antibody to peptide-pulsed Raji cells (FACS) (107 antibody): not

PQQPYPQQEQPYGT (SEQ ID NO:29)
binding of 107 antibody to peptide-pulsed Raji cells (FACS) (107 antibody): bind well | binding of 4.7C antibody to peptide-pulsed Raji cells (FACS) (4.7C antibody): bind well

PQQPYPQQQQPYGT (SEQ ID NO:24)
binding of 107 antibody to peptide-pulsed Raji cells (FACS) (107 antibody): not

PYPQQEQPY (SEQ ID NO:25) [p6 deamidated 9-mer]
binding of 107 antibody to peptide-pulsed Raji cells (FACS) (107 antibody): no binding | binding of 4.7C antibody to peptide-pulsed Raji cells (FACS) (4.7C antibody): no binding

QPQQPYPQQEQPYGTSL (SEQ ID NO:30) [A0A0E3SZN6 peptide]
expansion of IFN-γ positive CD4 T cells, healthy control [1]: no such expansion | expansion of IFN-γ positive cells in the CD3+/CD4− cell population [2]: not seen | peptide reactivity, CeD donor 600 [2, 3]: appeared to favor | peptide reactivity, CeD donor 595 [2, 3]: about equal on both | expansion of IFN-γ positive CD4 T cells, CeD donor [2]: 2.8% | presence of response in tested CeD PBMC material ([2]; FIG. 15A): 2/3 | responses in healthy controls [2]: no responses
